# Biological target: Human immunodeficiency virus type 1 protease (Human immunodeficiency virus 1, UniProt Q72874)
# Assay: Inhibitory activity towards HIV-1 protease
row,Structure (SMILES),IC50 [nM]
1,COC(=O)[C@@H](NC(=O)Cc1ccccc1)[C@@H]1N[C@@H](C(=O)NCCNC(=O)[C@@H]2N3C(=O)C(NC(=O)Cc4ccccc4)[C@H]3SC2(C)C)C(C)(C)S1 (stereo partly specified),500
2,CC1(C)S[C@H]([C@H](NC(=O)Cc2ccccc2)C(N)=O)N[C@H]1C(=O)NCCNC(=O)[C@@H]1N[C@@H]([C@H](NC(=O)Cc2ccccc2)C(N)=O)SC1(C)C,3
3,COC(=O)[C@@H](NC(=O)Cc1ccccc1)[C@@H]1N[C@@H](C(=O)NCCCNC(=O)[C@@H]2N[C@@H]([C@H](NC(=O)Cc3ccccc3)C(=O)OC)SC2(C)C)C(C)(C)S1,> 12000
4,CC1(C)S[C@@H]2[C@H](NC(=O)Cc3ccccc3)C(=O)N2[C@H]1C(=O)NCCNC(=O)[C@@H]1N2C(=O)[C@@H](NC(=O)Cc3ccccc3)[C@H]2SC1(C)C,> 70000
5,COC(=O)[C@@H](NC(=O)Cc1ccccc1)[C@@H]1N[C@@H](C(=O)NCCNC(C)=O)C(C)(C)S1,> 55000
6,CC1(C)S[C@H]([C@H](NC(=O)Cc2ccccc2)C(=O)NCc2ccccc2)N[C@H]1C(=O)NCCNC(=O)[C@@H]1N[C@@H]([C@H](NC(=O)Cc2ccccc2)C(=O)NCc2ccccc2)SC1(C)C,0.9
7,CCNC(=O)[C@@H](NC(=O)Cc1ccccc1)[C@@H]1N[C@@H](C(=O)OCCOC(=O)[C@@H]2N[C@@H]([C@H](NC(=O)Cc3ccccc3)C(=O)NCC)SC2(C)C)C(C)(C)S1,> 12000
8,CCNC(=O)[C@@H](NC(=O)Cc1ccccc1)[C@@H]1N[C@@H](C(=O)NCCNC(=O)[C@@H]2N[C@@H]([C@H](NC(=O)Cc3ccccc3)C(=O)NCC)SC2(C)C)C(C)(C)S1,4.8
9,COC(=O)[C@@H](NC(=O)Cc1ccccc1)[C@@H]1N[C@@H](C(=O)NNC(=O)[C@@H]2N[C@@H]([C@H](NC(=O)Cc3ccccc3)C(=O)OC)SC2(C)C)C(C)(C)S1,6800
10,CCNC(=O)[C@@H]1N[C@@H]([C@H](NC(=O)Cc2ccccc2)C(=O)OC)SC1(C)C,> 63000
11,COC(=O)[C@@H](NC(=O)Cc1ccccc1)[C@@H]1N[C@@H](C(=O)NCCNC(=O)[C@@H]2N[C@@H]([C@H](NC(=O)Cc3ccccc3)C(=O)OC)SC2(C)C)C(C)(C)S1,60

# Source: ChEMBL document CHEMBL1125526, “Penicillin derived C2-symmetric dimers as novel inhibitors of HIV-1 proteinase” (J Med Chem, 1992)
